Experiments:
Assay in all cases: Bliss interaction score (quartile over a dose matrix) (fitness difference); higher = more antagonism (negative = synergy)
B. subtilis 168 = system: B. subtilis 168
Method in brief: (§1)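 Fitness was derived from optical density at entry into stationary phase, divided by the robust mean of the no-drug wells on the same plate. That reading was taken as OD595, and the ratio was capped at 1. Single-drug fitness was inferred from the combination data. The Bliss score, observed fitness minus the expected product of single-drug fitness, was summarised as quartiles over technical, biological and donor/recipient replicates.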

S. aureus DSM 20231 = system: S. aureus DSM 20231
Method in brief: as §1

S. aureus Newman = system: S. aureus Newman
Method in brief: as §1

S. pneumoniae D39V = system: S. pneumoniae D39V
Method in brief: as §1
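Further: first quartile when negative (synergy) and third quartile when positive (antagonism).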

Row | Compound | Bliss interaction score (B. subtilis 168) | Bliss interaction score (S. aureus DSM 20231) | Bliss interaction score (S. aureus Newman) | Bliss interaction score (S. pneumoniae D39V) | Bliss interaction score (B. subtilis 168; main component drawn) | Bliss interaction score (S. aureus DSM 20231; main component drawn) | Bliss interaction score (S. aureus Newman; main component drawn) | Bliss interaction score (S. pneumoniae D39V; main component drawn)
1 | N#CC(C#N)=NNc1cccc(Cl)c1 [CCCP] + CN(C)c1cc(NC(=O)CNC(C)(C)C)c(O)c2c1C[C@H]1C[C@H]3[C@H](N(C)C)C(O)=C(C(N)=O)C(=O)[C@@]3(O)C(O)=C1C2=O [Tigecycline] | -0.0512 | 0.0272 | -0.0359 | 0.102 | – | – | – | –
2 | N#CC(C#N)=NNc1cccc(Cl)c1 [CCCP] + CC1=C(C(=O)O)N2C(=O)[C@@H](NC(=O)[C@H](N)c3ccccc3)[C@H]2SC1 [Cephalexin] | 0.0431 | 0.0708 | -0.0498 | -0.0759 | – | – | – | –
3 | CC(=O)Oc1ccccc1C(=O)O [Acetylsalicylicacid] + CN[C@H](CC(C)C)C(=O)N[C@H]1C(=O)N[C@@H](CC(N)=O)C(=O)N[C@H]2C(=O)N[C@H]3C(=O)N[C@H](C(=O)N[C@H](C(=O)O)c4cc(O)cc(O)c4-c4cc3ccc4O)[C@H](O)c3ccc(c(Cl)c3)Oc3cc2cc(c3O[C@@H]2O[C@H](CO)[C@@H](O)[C@H](O)[C@H]2O[C@H]2C[C@](C)(N)[C@H](O)[C@H](C)O2)Oc2ccc(cc2Cl)[C@H]1O [Vancomycin] | -0.0629 | -0.0542 | 0.0599 | 0.114 | – | – | – | –
4 | N#CC(C#N)=NNc1cccc(Cl)c1 [CCCP] + CCCCCCCCCC(=O)N[C@@H]1[C@H]([C@@H]([C@H](O[C@H]1OC2=C3C=C4C=C2OC5=C(C=C(C=C5)[C@H]([C@H]6C(=O)N[C@@H](C7=C(C(=CC(=C7)O)OC8[C@H]([C@H]([C@@H]([C@H](O8)CO)O)O)O)C9=C(C=CC(=C9)[C@H](C(=O)N6)NC(=O)[C@@H]4NC(=O)[C@@H]1C2=CC(=CC(=C2)OC2=C(C=CC(=C2)[C@H](C(=O)N[C@H](CC2=CC(=C(O3)C=C2)Cl)C(=O)N1)N)O)O)O)C(=O)O)O[C@H]1[C@@H]([C@H]([C@@H]([C@H](O1)CO)O)O)NC(=O)C)Cl)CO)O)O [Teicoplanin] | – | – | – | – | 0.17 | 0.0772 | -0.0483 | 0.096
5 | N#CC(C#N)=NNc1cccc(Cl)c1 [CCCP] + O=C(N[C@H](CO)[C@H](O)c1ccc([N+](=O)[O-])cc1)C(Cl)Cl [Chloramphenicol] | -0.0662 | -0.0344 | 0.076 | -0.0866 | – | – | – | –
6 | CC1(C)S[C@@H]2[C@H](NC(=O)Cc3ccccc3)C(=O)N2[C@H]1C(=O)O [PenicillinG] + CN[C@@H]1[C@H](O)[C@H](NC)[C@H]2O[C@@]3(O)C(=O)C[C@@H](C)O[C@H]3O[C@@H]2[C@H]1O [Spectinomycin] | 0.0272 | -0.0365 | -0.0496 | 0.0325 | – | – | – | –
7 | O=C(O)c1cn(C2CC2)c2cc(N3CCNCC3)c(F)cc2c1=O [Ciprofloxacin] + O=C(O)[C@H]1/C(=C/CO)O[C@@H]2CC(=O)N21 [Clavulanic] | -0.154 | -0.184 | 0.18 | -0.0997 | – | – | – | –
8 | N#CC(C#N)=NNc1cccc(Cl)c1 [CCCP] + C[C@H]1COc2c(N3CCN(C)CC3)c(F)cc3c(=O)c(C(=O)O)cn1c23 [Levofloxacin] | 0.0457 | -0.0231 | 0.0426 | 0.0909 | – | – | – | –
9 | CC(=O)Oc1ccccc1C(=O)O [Acetylsalicylicacid] + CO[C@@H]1[C@@H](OC(N)=O)[C@@H](O)[C@H](Oc2ccc3c(O)c(NC(=O)c4ccc(O)c(CC=C(C)C)c4)c(=O)oc3c2C)OC1(C)C [Novobiocin] | -0.146 | -0.068 | -0.0718 | 0.123 | – | – | – | –
10 | N#CC(C#N)=NNc1cccc(Cl)c1 [CCCP] + CC[C@H]1OC(=O)[C@H](C)[C@@H](O[C@H]2C[C@@](C)(OC)[C@@H](O)[C@H](C)O2)[C@H](C)[C@@H](O[C@@H]2O[C@H](C)C[C@H](N(C)C)[C@H]2O)[C@](C)(OC)C[C@@H](C)C(=O)[C@H](C)[C@@H](O)[C@]1(C)O [Clarithromycin] | 0.0363 | -0.0461 | 0.0706 | -0.0531 | – | – | – | –
11 | CC(=O)Oc1ccccc1C(=O)O [Acetylsalicylicacid] + O=C(O)[C@H]1/C(=C/CO)O[C@@H]2CC(=O)N21 [Clavulanic] | 0.0831 | -0.553 | 0.0986 | 0.0345 | – | – | – | –
12 | CN(C)[C@@H]1C(O)=C(C(N)=O)C(=O)[C@@]2(O)C(O)=C3C(=O)c4c(O)ccc(Cl)c4[C@@](C)(O)[C@H]3C[C@@H]12 [Clortetracycline] + CN[C@H](CC(C)C)C(=O)N[C@H]1C(=O)N[C@@H](CC(N)=O)C(=O)N[C@H]2C(=O)N[C@H]3C(=O)N[C@H](C(=O)N[C@H](C(=O)O)c4cc(O)cc(O)c4-c4cc3ccc4O)[C@H](O[C@H]3C[C@](C)(N)[C@@H](O)[C@H](C)O3)c3ccc(c(Cl)c3)Oc3cc2cc(c3O[C@@H]2O[C@H](CO)[C@@H](O)[C@H](O)[C@H]2O[C@H]2C[C@](C)(NCc3ccc(-c4ccc(Cl)cc4)cc3)[C@@H](O)[C@H](C)O2)Oc2ccc(cc2Cl)[C@H]1O [Oritavancin] | -0.0243 | -0.0292 | 0.0708 | 0.073 | – | – | – | –
13 | O=C(O)c1cn(C2CC2)c2cc(N3CCNCC3)c(F)cc2c1=O [Ciprofloxacin] + CO[C@@]12[C@H](COC(N)=O)C3=C(C(=O)C(C)=C(N)C3=O)N1C[C@@H]1N[C@@H]12 [MitomycinC] | -0.108 | -0.057 | 0.0577 | -0.111 | – | – | – | –
14 | CC(=O)Oc1ccccc1C(=O)O [Acetylsalicylicacid] + CCP(CC)CC.CC(=O)OC[C@@H]1[C@H]([C@@H]([C@H]([C@@H](O1)[S-])OC(=O)C)OC(=O)C)OC(=O)C.[Au+] [Auranofin] | 0.0526 | -0.0726 | 0.0597 | 0.0631 | – | – | – | –
15 | CC1(C)S[C@@H]2[C@H](NC(=O)Cc3ccccc3)C(=O)N2[C@H]1C(=O)O [PenicillinG] + Cc1cc(NS(=O)(=O)c2ccc(N)cc2)no1 [Sulfamethoxazol] | 0.0445 | -0.0626 | 0.0475 | -0.0954 | – | – | – | –
16 | CN(C)[C@@H]1C(O)=C(C(N)=O)C(=O)[C@@]2(O)C(O)=C3C(=O)c4c(O)ccc(Cl)c4[C@@](C)(O)[C@H]3C[C@@H]12 [Clortetracycline] + Cc1cc(NS(=O)(=O)c2ccc(N)cc2)no1 [Sulfamethoxazol] | 0.0702 | -0.058 | 0.0566 | -0.0455 | – | – | – | –
17 | CO/N=C(\C(=O)N[C@@H]1C(=O)N2C(C(=O)O)=C(COC(C)=O)CS[C@H]12)c1csc(N)n1 [Cefotaxime] + O=C(N[C@H](CO)[C@H](O)c1ccc([N+](=O)[O-])cc1)C(Cl)Cl [Chloramphenicol] | -0.0771 | 0.106 | -0.0902 | 0.158 | – | – | – | –
18 | CC(=O)Oc1ccccc1C(=O)O [Acetylsalicylicacid] + CO/N=C(\C(=O)N[C@@H]1C(=O)N2C(C(=O)O)=C(COC(N)=O)CS[C@H]12)c1ccco1 [Cefuroxime] | 0.177 | -0.628 | 0.0943 | 0.057 | – | – | – | –
19 | CC(=O)Oc1ccccc1C(=O)O [Acetylsalicylicacid] + CN[C@@H]1[C@H](O)[C@H](NC)[C@H]2O[C@@]3(O)C(=O)C[C@@H](C)O[C@H]3O[C@@H]2[C@H]1O [Spectinomycin] | 0.137 | -0.0696 | 0.0859 | -0.0679 | – | – | – | –
20 | N#CC(C#N)=NNc1cccc(Cl)c1 [CCCP] + CO[C@@]12[C@H](COC(N)=O)C3=C(C(=O)C(C)=C(N)C3=O)N1C[C@@H]1N[C@@H]12 [MitomycinC] | -0.051 | -0.0844 | -0.0345 | -0.0605 | – | – | – | –
21 | CC(=O)Oc1ccccc1C(=O)O [Acetylsalicylicacid] + C1=CC(=CC(=C1)Cl)NN=C(C#N)C#N [CCCP] | -0.0436 | -0.138 | -0.0296 | -0.161 | – | – | – | –
22 | C[C@@H]1O[C@@H]1P(=O)(O)O [Fosfomycin] + CC[C@H]1OC(=O)[C@H](C)C(=O)[C@H](C)[C@@H](O[C@@H]2O[C@H](C)C[C@H](N(C)C)[C@H]2O)[C@](C)(OC)C[C@@H](C)C(=O)[C@H](C)[C@H]2N(CCCCn3cnc(-c4cccnc4)c3)C(=O)O[C@]12C [Telithromycin] | 0.0824 | 0.0337 | -0.0576 | -0.0329 | – | – | – | –
23 | N#CC(C#N)=NNc1cccc(Cl)c1 [CCCP] + Cn1nnc(-c2ccc(-c3ccc(N4C[C@H](CO)OC4=O)cc3F)cn2)n1 [Tedizolid] | -0.0578 | -0.031 | 0.104 | 0.044 | – | – | – | –
24 | CN(C)[C@@H]1C(O)=C(C(N)=O)C(=O)[C@@]2(O)C(O)=C3C(=O)c4c(O)ccc(Cl)c4[C@@](C)(O)[C@H]3C[C@@H]12 [Clortetracycline] + COc1ccc(C[C@H](N)C(=O)N[C@H]2[C@@H](O)[C@H](n3cnc4c(N(C)C)ncnc43)O[C@@H]2CO)cc1 [Puromycin] | -0.0605 | -0.0681 | -0.0798 | -0.0852 | – | – | – | –
25 | N#CC(C#N)=NNc1cccc(Cl)c1 [CCCP] + CO/N=C(\C(=O)N[C@@H]1C(=O)N2C(C(=O)O)=C(COC(N)=O)CS[C@H]12)c1ccco1 [Cefuroxime] | 0.0873 | -0.256 | -0.112 | 0.0309 | – | – | – | –
26 | CC(=O)Oc1ccccc1C(=O)O [Acetylsalicylicacid] + C/C(=C\C(=O)OCCCCCCCCC(=O)O)C[C@@H]1OC[C@H](C[C@@H]2O[C@H]2[C@@H](C)[C@H](C)O)[C@@H](O)[C@H]1O [Pseudomonic acid] | -0.2 | -0.0241 | -0.0211 | -0.0974 | – | – | – | –

From the supplement of paper PMC10627819
